Experimental data taken from US20240218022A1, “ANTI-VISTA MACROCYCLIC PEPTIDES AND COMPOSITIONS” (BRISTOL-MYERS SQUIBB COMPANY, priority 2022, published 2024).
Starred links: 1 amine or outer side, 2 acyl side, 3 side chain; linkers in the order of their positions; H or OH if unused. Positions of bridges follow the written chain, without caps; N, C: chain ends. Non-standard residues stand in square brackets, D forms with d. Residues, ends and D or L forms follow the SMILES beside them. ξ: configuration not given here. Phe(3-Me) = Cc1cccc(C[C@H](N)C(=O)O)c1; Phe(4-Me) = Cc1ccc(C[C@H](N)C(=O)O)cc1; γGlu = O=C(O)[C@H](CCC(=O)[*:2])N[*:1]; 2Nal = N[C@@H](Cc1ccc2ccccc2c1)C(=O)O; βAsp = O=C(O)[C@H](CC(=O)[*:2])N[*:1]; Ile(3ξ) = CCC(C)[C@H](N)C(=O)O; Ahp(2) = CCCCC[C@H](N)C(=O)O; NMeNle = CCCC[C@H](NC)C(=O)O; Tle = CC(C)(C)[C@H](N)C(=O)O; NMeV = CN[C@H](C(=O)O)C(C)C; NHexGly = CCCCCCNCC(=O)O; Nle = CCCC[C@H](N)C(=O)O; Aun = NCCCCCCCCCCC(=O)O; Aze = O=C(O)[C@@H]1CCN1; Abu = CC[C@H](N)C(=O)O; Dap = NC[C@H](N)C(=O)O; AEEA = NCCOCCOCC(=O)O

Biological target: T1, mouse VISTA (mVISTA) (Mus musculus, UniProt Q9D659)
T1 construct: expressed in transfected cells; host or cells: Human embryonic kidney 293T cells
T1 sequence (Q9D659 33-308): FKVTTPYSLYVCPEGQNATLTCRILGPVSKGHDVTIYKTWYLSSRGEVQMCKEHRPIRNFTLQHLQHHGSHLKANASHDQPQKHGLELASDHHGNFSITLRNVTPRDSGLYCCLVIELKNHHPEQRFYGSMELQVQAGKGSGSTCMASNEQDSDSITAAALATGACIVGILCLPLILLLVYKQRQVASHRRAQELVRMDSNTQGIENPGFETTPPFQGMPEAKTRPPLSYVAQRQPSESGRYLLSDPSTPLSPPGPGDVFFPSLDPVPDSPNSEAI
Assay: Cell-Based Binding High-Content Assay For mVISTA (HC CBA mVISTA)
Settings: 293T cells expressing mouse VISTA; competition with biotinylated peptide (2 nM); read-out: HC CBA mVISTA IC50
How it was run: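 This high-content binding assay uses HEK293T cells expressing murine VISTA, measuring displacement of 2 nM biotinylated peptide by fluorescent streptavidin imaging. IC50 values come from four-parameter logistic fitting.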

Row | SMILES | IC50 [nM]
1 | CCCCCCN1CC(=O)N[C@@H](Cc2ccc(O)cc2)C(=O)N[C@@H](CCCCC)C(=O)N[C@@H](CC(N)=O)C(=O)N[C@@H](CCCNC(=N)N)C(=O)N[C@@H](CC(C)C)C(=O)N[C@@H](CCCCC)C(=O)N2CCC[C@H]2C(=O)N[C@@H](C(C)C)C(=O)N[C@@H](CC(N)=O)C(=O)N[C@H](C(=O)NCC(=O)O)CSCC(=O)N[C@@H](Cc2ccccc2)C(=O)N[C@@H](Cc2ccc(O)cc2)C(=O)N[C@@H](CC(=O)O)C1=O [Example 1026] ({CH2CO}-FYD[NHexGly]Y[Ahp(2)]NRL[Ahp(2)]PVNCG-OH; thioether N-14) | 5.5
2 | CCCCCCN1CC(=O)N[C@@H](Cc2ccc(O)cc2)C(=O)N[C@@H](CCCCN)C(=O)N[C@@H](CC(=O)O)C(=O)N[C@@H](CCCNC(=N)N)C(=O)N[C@@H](CC(C)C)C(=O)N[C@@H](CCCCC)C(=O)N2CCC[C@H]2C(=O)N[C@@H](C(C)C)C(=O)N[C@@H](CO)C(=O)N[C@H](C(=O)NCC(=O)O)CSCC(=O)N[C@@H](Cc2ccccc2)C(=O)N[C@@H](Cc2ccc(O)cc2)C(=O)N[C@@H](CC(=O)O)C1=O [Example 1052] ({CH2CO}-FYD[NHexGly]YKDRL[Ahp(2)]PVSCG-OH; thioether N-14) | 27.1

Same assay, conditions: cell-based binding high-content assay, mVISTA; the 15th table; read-out: HC CBA mVISTA IC50

Row | SMILES | IC50 [nM]
3 | CCCCCCN1CC(=O)N[C@@H](Cc2ccc(O)cc2)C(=O)N[C@@H](CCCC)C(=O)N[C@@H](CC(N)=O)C(=O)N[C@@H](CCCNC(=N)N)C(=O)N(C)[C@@H](C(C)C)C(=O)N[C@@H](CCCCC)C(=O)N2CCC[C@H]2C(=O)N[C@@H](C(C)C)C(=O)N[C@@H](CC(=O)O)C(=O)N[C@H](C(=O)NCC(=O)O)CSCC(=O)N[C@@H](Cc2ccc3ccccc3c2)C(=O)N[C@@H](Cc2c[nH]c3ccccc23)C(=O)N[C@@H](CC(=O)O)C1=O [compound 1260] ({CH2CO}-[2Nal]WD[NHexGly]Y[Nle]NR[NMeV][Ahp(2)]PVDCG-OH; thioether N-14) | 9.4
4 | CCCCCCN1CC(=O)N[C@@H](Cc2ccc(O)cc2)C(=O)N[C@@H](CCCC)C(=O)N[C@@H](CC(=O)O)C(=O)N[C@@H](CCCNC(=N)N)C(=O)N(C)[C@@H](CCCC)C(=O)N[C@@H](CCCCC)C(=O)N2CCC[C@H]2C(=O)N[C@@H](C(C)C)C(=O)N[C@@H](CC(=O)O)C(=O)N[C@H](C(=O)N[C@@H](CO)C(N)=O)CSCC(=O)N[C@@H](Cc2ccc3ccccc3c2)C(=O)N[C@@H](Cc2c[nH]c3ccccc23)C(=O)N[C@@H](CC(=O)O)C1=O [compound 1257] ({CH2CO}-[2Nal]WD[NHexGly]Y[Nle]DR[NMeNle][Ahp(2)]PVDCS-NH2; thioether N-14) | 11.3

Same assay, conditions: read-out: HC CBA mVISTA IC50

Row | SMILES | IC50 [nM]
5 | CCCCCCN1CC(=O)N[C@@H](Cc2ccc(O)cc2)C(=O)N[C@@H](CC(C)C)C(=O)N[C@@H](CC(N)=O)C(=O)N[C@@H](CCCNC(=N)N)C(=O)N[C@@H](CC(C)C)C(=O)N[C@@H](CCCCC)C(=O)N2CCC[C@H]2C(=O)N[C@@H](C(C)C)C(=O)N[C@@H](C(C)C)C(=O)N[C@H](C(=O)NCCOCCOCC(=O)N[C@@H](CCC(=O)NCCOCCOCC(=O)NCCCCCCCCCCC(=O)O)C(=O)O)CSCC(=O)N[C@@H](Cc2ccccc2)C(=O)N[C@@H](Cc2ccc(O)cc2)C(=O)N[C@@H](CC(=O)O)C1=O [compound 2217] ({CH2CO}-FYD[NHexGly]YLNRL[Ahp(2)]PVVC[AEEA][γGlu][AEEA][Aun]-OH; thioether N-14) | 13.1
6 | CCCCCCN1CC(=O)N[C@@H](Cc2ccc(O)cc2)C(=O)N[C@@H](CC)C(=O)NCC(=O)N[C@@H](CCCNC(=N)N)C(=O)N[C@@H](CC(C)C)C(=O)N[C@@H](CCCCC)C(=O)N2CCC[C@H]2C(=O)N[C@@H](C(C)C)C(=O)N2CCC[C@H]2C(=O)N[C@H](C(=O)NCC(=O)O)CSCC(=O)N[C@@H](Cc2ccccc2)C(=O)N[C@@H](Cc2ccc(O)cc2)C(=O)N[C@@H](CC(=O)O)C1=O [compound 1123] ({CH2CO}-FYD[NHexGly]Y[Abu]GRL[Ahp(2)]PVPCG-OH; thioether N-14) | 25.4
7 | CCCCCCN1CC(=O)N[C@@H](Cc2ccc(O)cc2)C(=O)N[C@@H](C(C)C)C(=O)NCC(=O)N[C@@H](CCCNC(=N)N)C(=O)N[C@@H](CC(C)C)C(=O)N[C@@H](CCCCC)C(=O)N2CCC[C@H]2C(=O)N[C@@H](C(C)C)C(=O)N[C@@H](CC(=O)O)C(=O)N[C@H](C(=O)NCCOCCOCC(=O)N[C@@H](CCC(=O)NCCOCCOCC(=O)NCCCCCCCCCCC(=O)O)C(=O)O)CSCC(=O)N[C@@H](Cc2ccc3ccccc3c2)C(=O)N[C@@H](Cc2ccc(O)cc2)C(=O)N[C@@H](CC(=O)O)C1=O [compound 2219] ({CH2CO}-[2Nal]YD[NHexGly]YVGRL[Ahp(2)]PVDC[AEEA][γGlu][AEEA][Aun]-OH; thioether N-14) | 24
8 | CCCCCCN1CC(=O)N[C@@H](Cc2ccc(O)cc2)C(=O)N[C@@H](CCCC)C(=O)N[C@@H](CC(N)=O)C(=O)N[C@@H](CCCNC(=N)N)C(=O)N(C)[C@@H](CCCC)C(=O)N[C@@H](CCCCC)C(=O)N2CCC[C@H]2C(=O)N[C@@H](C(C)C)C(=O)N[C@@H](CC(=O)O)C(=O)N[C@H](C(=O)N[C@@H](CN)C(=O)N[C@@H](CC(N)=O)C(=O)O)CSCC(=O)N[C@@H](Cc2ccccc2)C(=O)N[C@@H](Cc2c[nH]c3ccccc23)C(=O)N[C@@H](CC(=O)O)C1=O [compound 1133] ({CH2CO}-FWD[NHexGly]Y[Nle]NR[NMeNle][Ahp(2)]PVDC[Dap]N-OH; thioether N-14) | 11.5
9 | CCCCCCN1CC(=O)N[C@@H](Cc2ccc(O)cc2)C(=O)N[C@@H](CCCC)C(=O)N[C@@H](CC(N)=O)C(=O)N[C@@H](CCCNC(=N)N)C(=O)N(C)[C@@H](CCCC)C(=O)N[C@@H](CCCCC)C(=O)N2CC[C@H]2C(=O)N[C@@H](C(C)CC)C(=O)N[C@@H](CO)C(=O)N[C@H](C(=O)N[C@@H](CC(=O)NCCOCCOCC(=O)NCCCCCCCCCCC(=O)O)C(=O)O)CSCC(=O)N[C@@H](Cc2ccccc2)C(=O)N[C@@H](Cc2c[nH]c3ccccc23)C(=O)N[C@@H](CC(=O)O)C1=O (some centres unmarked) [Example 2183] ({CH2CO}-FWD[NHexGly]Y[Nle]NR[NMeNle][Ahp(2)][Aze][Ile(3ξ)]SC[βAsp][AEEA][Aun]-OH; thioether N-14) | 16.9
10 | CCCCCCN1CC(=O)N[C@@H](Cc2ccc(O)cc2)C(=O)N[C@@H](CC(C)C)C(=O)N[C@@H](CC(N)=O)C(=O)N[C@@H](CCCNC(=N)N)C(=O)N(C)[C@@H](CCCC)C(=O)N[C@@H](CCCCC)C(=O)N2CCC[C@H]2C(=O)N[C@@H](C(C)(C)C)C(=O)N[C@@H](CO)C(=O)N[C@H](C(=O)NCC(N)=O)CSCC(=O)N[C@@H](Cc2ccc(C)cc2)C(=O)N[C@@H](Cc2ccc(O)cc2)C(=O)N[C@@H](CC(=O)O)C1=O [compound 1215] ({CH2CO}-[Phe(4-Me)]YD[NHexGly]YLNR[NMeNle][Ahp(2)]P[Tle]SCG-NH2; thioether N-14) | 16.7
11 | CCCCCCN1CC(=O)N[C@@H](Cc2ccc(O)cc2)C(=O)N[C@@H](CCCC)C(=O)N[C@@H](CC(=O)O)C(=O)N[C@@H](CCCNC(=N)N)C(=O)N(C)[C@@H](CCCC)C(=O)N[C@@H](CCCCC)C(=O)N2CCC[C@H]2C(=O)N[C@@H](C(C)(C)C)C(=O)N[C@@H](CC(=O)O)C(=O)N[C@H](C(=O)N[C@@H](CC(N)=O)C(=O)O)CSCC(=O)N[C@@H](Cc2ccccc2)C(=O)N[C@@H](Cc2c[nH]c3ccccc23)C(=O)N[C@@H](CC(=O)O)C1=O [Example 1403] ({CH2CO}-FWD[NHexGly]Y[Nle]DR[NMeNle][Ahp(2)]P[Tle]DCN-OH; thioether N-14) | 32
12 | CCCCCCN1CC(=O)N[C@@H](Cc2ccc(O)cc2)C(=O)N[C@@H](CCCC)C(=O)NCC(=O)N[C@@H](CCCNC(=N)N)C(=O)N[C@@H](CC(C)C)C(=O)N[C@@H](CCCCC)C(=O)N2CCC[C@H]2C(=O)N[C@@H](C(C)C)C(=O)N[C@@H](CC(=O)O)C(=O)N[C@H](C(=O)NCCOCCOCC(=O)N[C@@H](CCC(=O)NCCOCCOCC(=O)NCCCCCCCCCCC(=O)O)C(=O)O)CSCC(=O)N[C@@H](Cc2cccc(C)c2)C(=O)N[C@@H](Cc2ccc(O)cc2)C(=O)N[C@@H](CC(=O)O)C1=O [compound 2216] ({CH2CO}-[Phe(3-Me)]YD[NHexGly]Y[Nle]GRL[Ahp(2)]PVDC[AEEA][γGlu][AEEA][Aun]-OH; thioether N-14) | 24.3
13 | CCCCCCN1CC(=O)N[C@@H](Cc2ccc(O)cc2)C(=O)N[C@@H](CCCC)C(=O)N[C@@H](CC(N)=O)C(=O)N[C@@H](CCCNC(=N)N)C(=O)N(C)[C@@H](CCCC)C(=O)N[C@@H](CCCCC)C(=O)N2CCC[C@H]2C(=O)N[C@@H](C(C)C)C(=O)N[C@@H](CC(=O)O)C(=O)N[C@H](C(=O)NCCOCCOCC(=O)N[C@@H](CC(=O)NCCOCCOCC(=O)NCCCCCCCCCCC(=O)O)C(=O)O)CSCC(=O)N[C@@H](Cc2ccccc2)C(=O)N[C@@H](Cc2c[nH]c3ccccc23)C(=O)N[C@@H](CC(=O)O)C1=O [Example 2204] ({CH2CO}-FWD[NHexGly]Y[Nle]NR[NMeNle][Ahp(2)]PVDC[AEEA][βAsp][AEEA][Aun]-OH; thioether N-14) | 14.9
14 | CCCCCCN1CC(=O)N[C@@H](Cc2ccc(O)cc2)C(=O)N[C@@H](CC(C)C)C(=O)NCC(=O)N[C@@H](CCCNC(=N)N)C(=O)N[C@@H](CC(C)C)C(=O)N[C@@H](CCCCC)C(=O)N2CCC[C@H]2C(=O)N[C@@H](C(C)C)C(=O)N2CCC[C@H]2C(=O)N[C@H](C(=O)NCC(N)=O)CSCC(=O)N[C@@H](Cc2ccccc2)C(=O)N[C@@H](Cc2ccc(O)cc2)C(=O)N[C@@H](CC(=O)O)C1=O [compound 1125] ({CH2CO}-FYD[NHexGly]YLGRL[Ahp(2)]PVPCG-NH2; thioether N-14) | 33.5
